Measurements published in ChEMBL document CHEMBL5360653, “Marine Alkaloid Lepadins E and H Induce Ferroptosis for Cancer Chemotherapy” (J Med Chem, 2023).
Activity calls are given as the source filed them. The rule behind the calls is not given here.

Columns and labels:
HeLa [1] = test: Cytotoxicity against human HeLa cells incubated for 72 hrs by MTT assay; format: functional, cell-based
HeLa [2] = test: Effect on lipid peroxidation in human HeLa cells incubated at 200 nM for 4 hrs by C11-BODIPY581/591 staining based flow cytometric analysis; format: functional, cell-based
HeLa [3] = test: Cytotoxicity against human HeLa cells assessed as increase in cell viability at 200 nM for 4 hrs relative to control; format: functional

Structure (SMILES) | IC50 (HeLa [1]) [µM] | Activity (HeLa [2]) | Activity (HeLa [3]) [%]
CCC/C=C/C=C/C(=O)OC | > 20 |  | 
Clc1cccc(CNC2=Nc3ccccc3NC23CCNCC3)c1 |  | Active | 5
CCCCCCCC(=O)O[C@@H]1C[C@H]2[C@@H](CCCC[C@H](O)CCC)CCC[C@H]2N[C@H]1C | 11.7 |  | 
CCCCC/C=C/C(=O)OC | > 20 |  | 
CCC[C@@H](O)CCCC[C@H]1CCC[C@H]2N[C@@H](C)[C@H](O)C[C@@H]12 | > 20 |  | 
